Measurements from the CheMixHub viscosity set.

Experiment: xn = mol fraction of the nth substance listed

CCCCOCCO + CCCCCCC
viscosity [mPa·s], 101 kPa
Conditions | 303.15 K | 313.15 K
x1 = 0.0365 | 0.407 | 0.364
x1 = 0.1077 | 0.484 | 0.426
x1 = 0.2126 | 0.626 | 0.534
x1 = 0.316 | 0.799 | 0.661
x1 = 0.417 | 0.987 | 0.797
x1 = 0.5114 | 1.177 | 0.941
x1 = 0.6155 | 1.411 | 1.116
x1 = 0.7469 | 1.741 | 1.359
x1 = 0.845 | 2.011 | 1.55
x1 = 0.9057 | 2.162 | 1.654
x1 = 0.9663 | 2.306 | 1.784

CCOC(=O)CCl + CCCCCCC
viscosity [mPa·s], 101.33 kPa
Conditions | x1 = 0.1037 | x1 = 0.203 | x1 = 0.3009 | x1 = 0.4005 | x1 = 0.4992 | x1 = 0.6048 | x1 = 0.705 | x1 = 0.8022 | x1 = 0.8954
298.15 K | 0.419 | 0.45 | 0.484 | 0.53 | 0.585 | 0.651 | 0.726 | 0.817 | 0.93
303.15 K | 0.398 | 0.424 | 0.457 | 0.498 | 0.545 | 0.608 | 0.676 | 0.761 | 0.859
308.15 K | 0.378 | 0.402 | 0.432 | 0.469 | 0.522 | 0.569 | 0.634 | 0.71 | 0.8

COC(=O)c1ccccc1 + CCCCCCC
viscosity [mPa·s], 101.3 kPa
Conditions | x1 = 0.0999 | x1 = 0.196 | x1 = 0.3001 | x1 = 0.3974 | x1 = 0.5004 | x1 = 0.5978 | x1 = 0.6984 | x1 = 0.8033 | x1 = 0.9017
298.15 K | 0.425 | 0.464 | 0.533 | 0.601 | 0.701 | 0.814 | 0.968 | 1.183 | 1.435
308.15 K | 0.382 | 0.418 | 0.472 | 0.535 | 0.616 | 0.708 | 0.839 | 1.008 | 1.197
318.15 K | 0.346 | 0.378 | 0.422 | 0.475 | 0.539 | 0.62 | 0.72 | 0.86 | 1.024

CCOC(=O)CCl + CCCCCCCC
viscosity [mPa·s], 101.33 kPa
Conditions | x1 = 0.1027 | x1 = 0.2003 | x1 = 0.3048 | x1 = 0.4033 | x1 = 0.5064 | x1 = 0.6021 | x1 = 0.7042 | x1 = 0.8031 | x1 = 0.9017
298.15 K | 0.524 | 0.553 | 0.586 | 0.618 | 0.666 | 0.718 | 0.782 | 0.855 | 0.953
303.15 K | 0.493 | 0.518 | 0.551 | 0.577 | 0.621 | 0.669 | 0.723 | 0.796 | 0.884
308.15 K | 0.465 | 0.487 | 0.519 | 0.541 | 0.584 | 0.624 | 0.676 | 0.741 | 0.82
